Eight molecules from ChEMBL document CHEMBL1201862, “PubChem BioAssay data set” (2004) can be followed below.

The source made the active and inactive calls.

By IC50 is commonly meant the concentration at which inhibition is half-maximal. A word on the EC50: it is the concentration giving half of the maximal effect. One may read the AC50 as the midpoint of the concentration-response curve, whichever way the signal moves.

A short description of test [1]: insulin promoter down-regulators in MIN6 cells, imaging, high-content screening, mouse beta cells (AID 1628). Format: functional.
A short description of test [2]: C. albicans growth with fluconazole, confirmation, fluorescence, retest (AID 2467). Type of test: functional, cell-based.
A short description of test [3]: NIH-3T3 fibroblast cytotoxicity, dose response, cytotoxicity control, cell-based, fluorescence, Alamar Blue, secondary assay (AID 2327).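 Further: NIH-3T3 mouse fibroblasts cultured with fluconazole at 8 µg/mL.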 Type of test: functional. For orientation: Alamar Blue is a resazurin reagent that responds to reducing activity.
Test [4] can be described thus: cytotoxicity in MIN6 insulinoma cells, dose response, cytotoxicity control, cell-based, mouse insulinoma (AID 2122).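 Further: confirmatory high-throughput counterscreen run to flag cytotoxic compounds; mouse MIN-6 beta cells carrying an insulin promoter eGFP reporter.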 Format: functional.
The nature of test [5]: Luminescence Cell-Based Dose Retest to Confirm Inhibitors of Cancer Stem Cells. [Related pubchem assays (depositor defined):AID2717, AID2721]. Type of test: functional. To be noted: Homo sapiens.
A further test has as its system A-375. In words: A375 melanoma cell viability reduction, dose response, counter-screen for MITF modulator project, cherry-pick samples, set 2 (AID 540335). Type of test: functional, cell-based. To be noted: Homo sapiens. On the technique in general: A counterscreen serves to expose hits that act by an unwanted route or on another target.
The target in test [6] is Microphthalmia-associated transcription factor (Homo sapiens, UniProt O75030). In words: TRPM1 promoter luciferase signal decrease, dose response, MITF inhibitor project, cell-based, SK-MEL-5, cherry-picked, set 3 (AID 493073). Format: functional.
The subject of a further test is INS1. Kind of test: beta cell apoptosis inhibitors, cytokine rescue, dose response, luminescence, retest (AID 449756).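 Further: cell death triggered by IL-1 beta plus TNF-alpha plus IFN-gamma mixture; protective hits raise ATP signal compared with cytokine alone wells.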 Format: functional, cell-based. To be noted: Rattus norvegicus.
A further test has as its target CAAX prenyl protease 2 (Homo sapiens, UniProt Q9Y256). In words: human Rce1 protease inhibitors, dose response, biochemical, yeast membranes, quenched-peptide fluorescence, cherry-pick (AID 588849).
The next test in a line: cells. Type of test: functional.
In test [7] the test system is Streptococcus sp. 'group A'. Kind of test: growth inhibition of control SK(-) GAS strain, dose response, counter-screen for streptokinase expression inhibitor project, luminescence, kanamycin, BacTiterGlo, confirmation (AID 1900). Format: functional, organism-based.
The next test relates to Escherichia coli. Kind of test: microbe, parasite or virus in culture.
For a further test, the system named is Streptococcus. In words: Group A Streptococcus viability loss, dose response, counter-screen for streptokinase expression inhibitor project, luminescence, BacTiterGlo (AID 1915).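 Further: potency for reduction of bacterial viability or growth.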 Type of test: functional, organism-based.
For test [8], the target named is T1, Mannose-6-phosphate isomerase (Homo sapiens, UniProt P34949).
T1 sequence (P34949 whole entry): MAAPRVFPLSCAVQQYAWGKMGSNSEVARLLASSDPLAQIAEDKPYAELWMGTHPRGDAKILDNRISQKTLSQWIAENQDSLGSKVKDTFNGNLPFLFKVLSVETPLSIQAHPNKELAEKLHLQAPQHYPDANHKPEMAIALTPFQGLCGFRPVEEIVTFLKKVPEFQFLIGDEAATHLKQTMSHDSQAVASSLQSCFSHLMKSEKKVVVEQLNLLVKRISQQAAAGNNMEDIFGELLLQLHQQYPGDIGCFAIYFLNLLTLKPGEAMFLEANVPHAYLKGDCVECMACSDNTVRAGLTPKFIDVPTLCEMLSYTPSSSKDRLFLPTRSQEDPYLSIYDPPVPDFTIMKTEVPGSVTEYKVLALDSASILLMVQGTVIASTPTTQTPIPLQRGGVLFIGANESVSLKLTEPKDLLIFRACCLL
In words: PMI enzyme inhibitors, confirmation, biochemical, fluorescence intensity (AID 1535).

The next test concerns the target Phosphomannomutase 2 (Homo sapiens, UniProt O15305). Kind of test: Counter screen SAR assay for PMM2 inhibitors via a fluorescence intensity assay. [Related pubchem assays (depositor defined):AID1545, AID1574].
Test [9] deals with HEK293. In words: cells. To be noted: Homo sapiens.
Test [10] concerns HEK293. Kind of test: cells. The note with it: Homo sapiens. The source holds these as a separate data set.
The target of test [11] is Lysine-specific demethylase 4C (Homo sapiens, UniProt Q9H3R0). Kind of test: GASC-1 (JMJD2C) histone demethylase inhibitors, dose response, biochemical, DELFIA europium, cherry-picked samples (AID 488835). Type of test: functional.
Test [12] in a line: cytotoxicity in HEK-293T cells, dose response, cytotoxicity control for TCR NF-kB inhibitor project, luminescence, T-cell screen hits (AID 489026).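 Further: cells exposed to compound about 14 hours before the viability readout.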 Format: functional, cell-based.

Sequence of Phosphomannomutase 2 (O15305 whole entry): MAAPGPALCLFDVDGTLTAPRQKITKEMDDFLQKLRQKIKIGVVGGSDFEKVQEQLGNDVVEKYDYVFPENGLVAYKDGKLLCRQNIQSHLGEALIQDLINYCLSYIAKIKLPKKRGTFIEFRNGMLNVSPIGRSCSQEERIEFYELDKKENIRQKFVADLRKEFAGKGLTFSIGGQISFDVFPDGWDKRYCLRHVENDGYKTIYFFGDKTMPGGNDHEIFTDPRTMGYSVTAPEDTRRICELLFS
Sequence of Microphthalmia-associated transcription factor (O75030 whole entry): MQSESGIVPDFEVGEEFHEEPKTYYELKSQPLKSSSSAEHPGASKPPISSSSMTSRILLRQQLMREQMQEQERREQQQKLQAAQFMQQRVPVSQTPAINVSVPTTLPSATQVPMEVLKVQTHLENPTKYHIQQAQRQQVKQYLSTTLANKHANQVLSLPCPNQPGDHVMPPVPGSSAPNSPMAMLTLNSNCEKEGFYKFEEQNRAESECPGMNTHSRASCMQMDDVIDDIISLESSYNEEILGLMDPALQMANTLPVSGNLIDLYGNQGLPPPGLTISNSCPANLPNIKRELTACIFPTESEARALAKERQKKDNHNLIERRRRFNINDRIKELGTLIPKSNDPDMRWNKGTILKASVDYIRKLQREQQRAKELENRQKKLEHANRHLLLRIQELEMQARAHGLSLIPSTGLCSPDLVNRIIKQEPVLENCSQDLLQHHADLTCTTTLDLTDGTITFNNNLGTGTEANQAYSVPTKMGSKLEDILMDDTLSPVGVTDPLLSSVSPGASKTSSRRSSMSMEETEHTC
Sequence of CAAX prenyl protease 2 (Q9Y256 whole entry): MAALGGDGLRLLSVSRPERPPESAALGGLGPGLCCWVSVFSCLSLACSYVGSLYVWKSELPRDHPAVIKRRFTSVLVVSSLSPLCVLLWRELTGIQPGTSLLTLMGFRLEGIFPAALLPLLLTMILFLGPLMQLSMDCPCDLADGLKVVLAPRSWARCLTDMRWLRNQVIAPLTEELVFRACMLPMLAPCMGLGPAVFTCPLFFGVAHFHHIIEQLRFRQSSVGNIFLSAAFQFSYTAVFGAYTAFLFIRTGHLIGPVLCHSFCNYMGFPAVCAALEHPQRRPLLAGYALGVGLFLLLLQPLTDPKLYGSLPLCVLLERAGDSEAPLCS
Sequence of Lysine-specific demethylase 4C (Q9H3R0 whole entry): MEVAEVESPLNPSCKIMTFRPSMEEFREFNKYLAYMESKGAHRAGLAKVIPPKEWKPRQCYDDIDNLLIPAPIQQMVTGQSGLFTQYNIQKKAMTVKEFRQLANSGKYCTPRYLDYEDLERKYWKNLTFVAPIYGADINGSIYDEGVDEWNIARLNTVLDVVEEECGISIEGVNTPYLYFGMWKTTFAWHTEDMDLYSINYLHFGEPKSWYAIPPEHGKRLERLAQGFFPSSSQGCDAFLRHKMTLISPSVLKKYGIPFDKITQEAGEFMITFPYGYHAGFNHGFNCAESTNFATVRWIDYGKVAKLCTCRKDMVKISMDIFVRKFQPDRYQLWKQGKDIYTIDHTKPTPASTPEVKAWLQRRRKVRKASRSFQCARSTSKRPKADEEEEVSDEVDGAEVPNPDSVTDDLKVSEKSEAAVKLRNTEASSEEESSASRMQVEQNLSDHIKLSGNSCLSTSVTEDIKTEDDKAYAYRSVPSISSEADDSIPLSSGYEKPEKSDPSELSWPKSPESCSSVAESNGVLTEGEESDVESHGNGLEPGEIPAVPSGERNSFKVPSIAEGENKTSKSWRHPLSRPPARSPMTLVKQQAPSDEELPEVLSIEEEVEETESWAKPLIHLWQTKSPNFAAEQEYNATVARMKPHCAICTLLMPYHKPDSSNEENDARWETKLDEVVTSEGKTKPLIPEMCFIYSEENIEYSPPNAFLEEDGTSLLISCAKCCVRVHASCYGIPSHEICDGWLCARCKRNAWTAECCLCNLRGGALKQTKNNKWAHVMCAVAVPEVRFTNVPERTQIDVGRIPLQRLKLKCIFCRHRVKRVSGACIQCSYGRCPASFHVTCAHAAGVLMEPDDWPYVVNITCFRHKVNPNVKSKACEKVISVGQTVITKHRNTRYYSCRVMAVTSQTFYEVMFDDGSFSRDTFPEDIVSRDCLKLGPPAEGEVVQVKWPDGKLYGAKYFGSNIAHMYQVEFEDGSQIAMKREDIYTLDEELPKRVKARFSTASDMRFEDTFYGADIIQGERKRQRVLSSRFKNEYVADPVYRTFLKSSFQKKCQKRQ

Regarding `Cc1ccc(C(C)C)c(OCc2n[n+](CC(=O)c3ccc(OC(F)F)cc3)c3n2CCCCC3)c1`, the IC50 in test [1] was 1.27 µM (active); in [4], 1.13 µM (active). The EC50 is 0.74 µM (active) in [2] and > 150 µM (inactive) in [3]. In addition, the AC50 in [5] is 5.68 µM (active); with A-375 it was 20.1 µM (active); in test [6], 9.17 µM (active); with INS1, 3.09 µM (active).

`C/C=C(/C)C(=O)O[C@H]1[C@@H](O)c2c(ccc3ccc(=O)oc23)OC1(C)C`: the AC50 at CAAX prenyl protease 2 is 24.9 µM (active).

Turning to `CNC(=S)N1CCN(c2c(F)cc3c(=O)c(C(=O)O)cn(C4CC4)c3c2OC)CC1C` (configuration not stated), the IC50 in the test “cells” was 2.57 µM (active). The EC50 in test [7] is 0.179 µM (active); in the test on Streptococcus it was 0.229 µM (active). In addition, the AC50 with Escherichia coli was 1.44 µM (active).

As for `FC(F)(F)c1nnc(/N=c2\ssnc2Cl)s1`, the IC50 in [8] was 20.8 µM (active); on Phosphomannomutase 2, > 100 µM (inactive).

`NC(Cc1ccc(C(F)(F)F)cc1)c1csc(NC(=O)Nc2ccccc2Oc2ccccc2)n1` (configuration not stated): the EC50 with HEK293 [9] and in the test with HEK293 [10] was > 59.6 µM (inactive) throughout.

Consider `COc1ccc(/C=N/Nc2cc(=O)n(C)c(=O)n2C)cc1OC`, for which the AC50 in test [11] was 7.21 µM (active).

With `COC(=O)C1C(O)C(C)C(O)C(C)(O)/C=C\C=C(/C)C(=O)Nc2c(C)c(OC(C)=O)c3c(c2O)C(=O)C(C)=C2OCOC(=C23)/C(C)=C/C(C)(O)C(O)C(C)C1O` (configuration not stated), the AC50 in the test with Escherichia coli is > 150 µM (inactive).

As to `COc1ccc(Br)cc1/C(C)=N/NC1=NCCN1`, the IC50 was 4.74 µM (active) in test [1], 3.47 µM (active) in [4] and > 80 µM (inactive) in [12].
